Consider 15 molecules from patent US20230097157A1, “Bicyclic Pyridin-2-one and pyrimidin-4-one Derivatives Useful As a Factor XIa Inhibitors” (Janssen Pharmaceutica NV, priority 2021, published 2023).

The target of one test is Factor XIa (Homo sapiens, UniProt P03951). Briefly: Factor XIa inhibition assay (FLINT) utilizing a fluorophore-quencher pair peptide substrate 5Fam-[…]-K5Tamra. The format is biochemical. The settings on record: kinetic (KIN) reads, read-out: FXIa KIN Inh IC50. The essentials: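 FXIa was preincubated with compound for 30 min at room temperature in Tris pH 7.5 buffer containing CaCl2, BSA and CHAPS, then reacted with 15 μM quenched 5Fam/Tamra peptide substrate. Fluorescence (485/520 nm) was read kinetically every 5 min for 30 min.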
Factor XIa, sequence (P03951 388-625 limits assumed): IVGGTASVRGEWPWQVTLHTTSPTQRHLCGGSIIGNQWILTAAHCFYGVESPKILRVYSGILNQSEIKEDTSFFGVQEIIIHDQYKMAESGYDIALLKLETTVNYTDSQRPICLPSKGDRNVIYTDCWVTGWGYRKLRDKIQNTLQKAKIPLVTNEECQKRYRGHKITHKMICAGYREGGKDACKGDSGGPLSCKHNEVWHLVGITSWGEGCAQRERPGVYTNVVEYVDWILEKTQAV
Factor XIa, sequence (P03951 19-387 partner limits assumed): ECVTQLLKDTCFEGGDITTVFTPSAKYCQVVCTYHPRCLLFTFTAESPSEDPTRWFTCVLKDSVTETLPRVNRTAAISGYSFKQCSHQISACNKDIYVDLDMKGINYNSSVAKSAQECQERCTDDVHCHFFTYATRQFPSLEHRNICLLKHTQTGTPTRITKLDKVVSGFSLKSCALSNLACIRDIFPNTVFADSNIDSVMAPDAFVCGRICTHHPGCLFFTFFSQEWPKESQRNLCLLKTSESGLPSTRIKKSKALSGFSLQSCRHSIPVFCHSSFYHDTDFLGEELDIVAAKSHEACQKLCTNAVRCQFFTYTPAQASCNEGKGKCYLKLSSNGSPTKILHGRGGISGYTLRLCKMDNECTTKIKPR

The target in the next test is human plasma kallikrein (Homo sapiens, UniProt P03952). Briefly: Kallikrein inhibition assay (FLINT) utilizing a quenched AMC peptide substrate Z-Gly-Pro-Arg-AMC. In kind it is biochemical. The settings on record: kinetic (KIN) reads, read-out: Kallikrein KIN Inh IC50. The essentials: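 Human plasma kallikrein (2 nM final) pre-incubated 30 min with compound (11-point 3-fold series, top 1 μM, 2% DMSO), then 50 μM Z-Gly-Pro-Arg-AMC added. Buffer 50 mM Tris pH 7.5, 100 mM NaCl, 5 mM CaCl2, BSA, CHAPS. AMC fluorescence (340/440 nm) read kinetically over 30 min at room temperature, IC50 by 4-parameter logistic fit.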
human plasma kallikrein, sequence (P03952 391-638 limits assumed): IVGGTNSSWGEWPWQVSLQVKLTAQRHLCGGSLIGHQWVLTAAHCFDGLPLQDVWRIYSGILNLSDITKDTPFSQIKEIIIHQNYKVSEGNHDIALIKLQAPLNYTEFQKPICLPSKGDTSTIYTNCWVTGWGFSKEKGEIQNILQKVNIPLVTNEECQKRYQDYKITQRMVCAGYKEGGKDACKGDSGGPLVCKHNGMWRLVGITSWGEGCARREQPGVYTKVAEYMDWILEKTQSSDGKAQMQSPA
human plasma kallikrein, sequence (P03952 20-390 partner limits assumed): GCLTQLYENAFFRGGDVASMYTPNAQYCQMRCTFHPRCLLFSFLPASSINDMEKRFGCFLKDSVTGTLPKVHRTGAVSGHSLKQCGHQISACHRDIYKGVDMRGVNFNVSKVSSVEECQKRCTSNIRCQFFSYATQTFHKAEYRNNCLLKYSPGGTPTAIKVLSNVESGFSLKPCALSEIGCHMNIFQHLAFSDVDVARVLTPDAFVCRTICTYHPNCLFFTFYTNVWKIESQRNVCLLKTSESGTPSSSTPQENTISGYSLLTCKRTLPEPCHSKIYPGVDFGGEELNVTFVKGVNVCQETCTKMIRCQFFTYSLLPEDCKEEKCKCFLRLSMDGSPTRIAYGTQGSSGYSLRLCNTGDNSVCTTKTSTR

Where two headings read alike, the source gives them in different places. Bounds are passed on as bounds.

With `Cc1nc(N)c(F)cc1-c1cnc([C@@H]2C[C@H](C)c3nc(-c4c(-n5cnnn5)ccc(Cl)c4F)cc(=O)n32)[nH]1` (stereo in doubt) [Example 130, (6*S,8*S)-6-(5-(6-Amino-5-fluoro-2-methylpyridin-3-yl)-1H-imidazol-2-yl)-2-(3-chloro-2-fluoro-6-(1H-tetrazol-1-yl)phenyl)-8-methyl-7,8-dihydropyrrolo[1,2-a]pyrimidin-4(6H)-one], the IC50 at Factor XIa (unit μM) and at human plasma kallikrein (unit μM) was > 10 µM in each case.

With `Cc1nc(N)cnc1-c1cnc([C@@H]2CC(C)c3nc(-c4c(-n5cnnn5)ccc(Cl)c4F)cc(=O)n32)[nH]1` (stereo partly drawn) [Example 95, (6S)-6-(5-(5-Amino-3-methylpyrazin-2-yl)-1H-imidazol-2-yl)-2-(3-chloro-2-fluoro-6-(1H-tetrazol-1-yl)phenyl)-8-methyl-7,8-dihydropyrrolo[1,2-a]pyrimidin-4(6H)-one], the IC50 on Factor XIa (values in nM) was determined as 0.0053 µM; at human plasma kallikrein (values in nM), 0.0717 µM.

On to `C[C@@H]1C[C@H](c2ncc(-c3ccnc(CN)c3)[nH]2)n2c1cc(-c1c(-n3cnnn3)ccc(Cl)c1F)cc2=O` (relative stereo) [Example 38, (1*R,3*R)-3-(5-(2-(Aminomethyl)pyridin-4-yl)-1H-imidazol-2-yl)-7-(3-chloro-2-fluoro-6-(1H-tetrazol-1-yl)phenyl)-1-methyl-2,3-dihydroindolizin-5(1H)-one], for which the figures for the IC50 on Factor XIa (values in nM) and at human plasma kallikrein (values in nM) were 0.0429 µM and 0.539 µM, respectively.

For the molecule `C[C@H]1C[C@@H](c2ncc(-c3cc4c(cn3)NC(=O)CC4)[nH]2)n2c1cc(-c1c(-n3cnnn3)ccc(Cl)c1F)cc2=O` (single isomer, unassigned) [Example 9, 6-(2-((1*S,3*S)-7-(3-Chloro-2-fluoro-6-(1H-tetrazol-1-yl)phenyl)-1-methyl-5-oxo-1,2,3,5-tetrahydroindolizin-3-yl)-1H-imidazol-5-yl)-3,4-dihydro-1,7-naphthyridin-2(1H)-one], the 50% inhibitory concentration (IC50) at Factor XIa (values in nM) was 0.0069 µM; on human plasma kallikrein (values in nM), ~0.0214 µM.

As for `C[C@H]1C[C@H](c2ncc(-c3cnns3)[nH]2)n2c1nc(-c1c(-n3cnnn3)ccc(Cl)c1F)cc2=O` (relative stereo) [Example 106, (6*R,8*S)-6-(5-(1,2,3-Thiadiazol-5-yl)-1H-imidazol-2-yl)-2-(3-chloro-2-fluoro-6-(1H-tetrazol-1-yl)phenyl)-8-methyl-7,8-dihydropyrrolo[1,2-a]pyrimidin-4(6H)-one], the 50% inhibitory concentration (IC50) was 0.933 µM on Factor XIa (values in nM) and 6.4 µM at human plasma kallikrein (unit μM).

With `COC(=O)Nc1ccc(-c2cnc([C@@H]3C[C@H](C)c4cc(-c5c(-n6cnnn6)ccc(Cl)c5F)cc(=O)n43)[nH]2)cc1` [Example 63, Methyl(4-(2-((1S,3S)-7-(3-chloro-2-fluoro-6-(1H-tetrazol-1-yl)phenyl)-1-methyl-5-oxo-1,2,3,5-tetrahydroindolizin-3-yl)-1H-imidazol-5-yl)phenyl)carbamate], the results for the IC50 on Factor XIa (values in nM) and on human plasma kallikrein (values in nM) were 0.0002 µM and 0.0035 µM, respectively.

With `C[C@H]1C[C@@H](c2ncc(-c3ccnc(N)c3F)[nH]2)n2c1nc(-c1c(-n3cnnn3)ccc(Cl)c1F)cc2=O` (relative stereo) [Example 88, (6*S,8*S)-6-(5-(2-Amino-3-fluoropyridin-4-yl)-1H-imidazol-2-yl)-2-(3-chloro-2-fluoro-6-(1H-tetrazol-1-yl)phenyl)-8-methyl-7,8-dihydropyrrolo[1,2-a]pyrimidin-4(6H)-one], the 50% inhibitory concentration (IC50) on Factor XIa (values in nM) was 0.0026 µM; on human plasma kallikrein (values in nM), 0.0145 µM.

With `C[C@H]1C[C@@H](c2ncc(-c3ccc(NC(=O)C4CC4)nc3)[nH]2)n2c1nc(-c1c(-n3cnnn3)ccc(Cl)c1F)cc2=O` (stereo in doubt) [Example 123, N-(5-(2-((6*S,8*S)-2-(3-Chloro-2-fluoro-6-(1H-tetrazol-1-yl)phenyl)-8-methyl-4-oxo-4,6,7,8-tetrahydropyrrolo[1,2-a]pyrimidin-6-yl)-1H-imidazol-5-yl)pyridin-2-yl)cyclopropanecarboxamide], the IC50 is 0.0031 µM at Factor XIa (values in nM) and 0.0175 µM on human plasma kallikrein (values in nM).

With `C[C@H]1C[C@@H](c2ncc(-c3ccc(N)nn3)[nH]2)n2c1cc(-c1c(-n3cnnn3)ccc(Cl)c1F)cc2=O` (relative stereo) [Example 10, (1 S*,3S*)-3-(5-(6-Aminopyridazin-3-yl)-1H-imidazol-2-yl)-7-(3-chloro-2-fluoro-6-(1H-tetrazol-1-yl)phenyl)-1-methyl-2,3-dihydroindolizin-5(1H)-one], the values for the IC50 on Factor XIa (values in nM) and on human plasma kallikrein (values in nM) were 0.0183 µM and 0.345 µM, respectively.

Turning to `O=c1cc(-c2c(-n3cnnn3)ccc(Cl)c2F)cc2n1[C@H](c1ncc(-c3ccnc(CO)c3F)[nH]1)CC21CC1` [Example 7, (S)-7′-(3-Chloro-2-fluoro-6-(1H-tetrazol-1-yl)phenyl)-3′-(5-(3-fluoro-2-(hydroxymethyl)pyridin-4-yl)-1H-imidazol-2-yl)-2′,3′-dihydro-5′H-spiro[cyclopropane-1,1′-indolizin]-5′-one], the IC50 worked out at 0.0069 µM on Factor XIa (values in nM) and 0.038 µM on human plasma kallikrein (values in nM).

For `Cc1nc(N)c(F)cc1-c1cnc([C@H]2C[C@@H](C)c3nc(-c4c(-n5cnnn5)ccc(Cl)c4F)cc(=O)n32)[nH]1` (stereo in doubt) [Example 128, (6*R,8*R)-6-(5-(6-Amino-5-fluoro-2-methylpyridin-3-yl)-1H-imidazol-2-yl)-2-(3-chloro-2-fluoro-6-(1H-tetrazol-1-yl)phenyl)-8-methyl-7,8-dihydropyrrolo[1,2-a]pyrimidin-4(6H)-one], the IC50 on Factor XIa (values in nM) amounted to 0.283 µM; on human plasma kallikrein (values in nM) it was 0.747 µM.

`C[C@@H]1C[C@@H](c2ncc(-c3ccnn3C)[nH]2)n2c1nc(-c1c(-n3cnnn3)ccc(Cl)c1F)cc2=O` (relative stereo) [Example 145, (6S*,8R*)-2-(3-Chloro-2-fluoro-6-(1H-tetrazol-1-yl)phenyl)-8-methyl-6-(5-(1-methyl-1H-pyrazol-5-yl)-1H-imidazol-2-yl)-7,8-dihydropyrrolo[1,2-a]pyrimidin-4(6H)-one]: the 50% inhibitory concentration (IC50) at Factor XIa (unit μM) and at human plasma kallikrein (unit μM) was > 10 µM each time.

On to `C[C@@H]1CC(c2ncc(-c3cnc(N)c(F)c3)[nH]2)n2c1cc(-c1c(-n3cnnn3)ccc(Cl)c1F)cc2=O` (stereo in doubt) [Example 60, (1*R)-3-(5-(6-Amino-5-fluoropyridin-3-yl)-1H-imidazol-2-yl)-7-(3-chloro-2-fluoro-6-(1H-tetrazol-1-yl)phenyl)-1-methyl-2,3-dihydroindolizin-5(1H)-one], for which the results for the IC50 on Factor XIa (values in nM) and at human plasma kallikrein (values in nM) were 0.0478 µM and 0.185 µM, respectively.

`C[C@H]1C[C@@H](c2ncc(-c3cc(N)nn3C)[nH]2)n2c1cc(-c1c(-n3cnnn3)ccc(Cl)c1F)cc2=O` [Example 15, (1S,3S)-3-(5-(3-Amino-1-methyl-1H-pyrazol-5-yl)-1H-imidazol-2-yl)-7-(3-chloro-2-fluoro-6-(1H-tetrazol-1-yl)phenyl)-1-methyl-2,3-dihydroindolizin-5(1H)-one]: the figures for the IC50 on Factor XIa (values in nM) and on human plasma kallikrein (unit μM) were 0.165 µM and 3.2 µM, respectively.

As to `C[C@H]1C[C@H](c2ncc(-c3ccnc(N)c3F)[nH]2)n2c1nc(-c1c(-n3cnnn3)ccc(Cl)c1F)cc2=O` (relative stereo) [Example 87, (6R*,8S*)-6-(5-(2-amino-3-fluoropyridin-4-yl)-1H-imidazol-2-yl)-2-(3-chloro-2-fluoro-6-(1H-tetrazol-1-yl)phenyl)-8-methyl-7,8-dihydropyrrolo[1,2-a]pyrimidin-4(6H)-one], the figures for the 50% inhibitory concentration (IC50) on Factor XIa (values in nM) and at human plasma kallikrein (values in nM) were 0.0015 µM and 0.0277 µM, respectively.
